Test system: yeast genes (expressed mRNA)
Experiment: DNA chip measurement of expressed mRNA of yeast genes after culture with a toxic chemical substance
Assay type: cell-based, Saccharomyces cerevisiae S288C
Method in brief: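 Yeast S288C, YPD 25° C; toxicant at log phase, 2 h, sublethal growth-inhibiting conc.; no-chemical control. Hot SDS/acetate RNA extraction, oligo-dT mRNA, Cy3/Cy5-dUTP RT. Whole-genome chip, 65° C >12 h. Readout: treated/control intensity ratio, ≥2 significant.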

Oc1cc(Cl)c(Cl)cc1Cl [(6), 2,4,5-Trichlorophenol]
The level of expressed mRNA in the presence of chemical substance/The level of expressed mRNA in the absence of chemical substance (yeast gene YAL053W, cultured two hours with substance): 1.1 | The level of expressed mRNA in the presence of chemical substance/The level of expressed mRNA in the absence of chemical substance (yeast gene YAR028W, cultured two hours with substance): 3.3 | The level of expressed mRNA in the presence of chemical substance/The level of expressed mRNA in the absence of chemical substance (yeast gene YBL043W): 26.9 | The level of expressed mRNA in the presence of chemical substance/The level of expressed mRNA in the absence of chemical substance (yeast gene YBL048W, cultured two hours with substance): 2.0 | The level of expressed mRNA in the presence of chemical substance/The level of expressed mRNA in the absence of chemical substance (yeast gene YBL107C, cultured two hours with substance): 1.1 | The level of expressed mRNA in the presence of chemical substance/The level of expressed mRNA in the absence of chemical substance (yeast gene YBR026C): 0.1 | The level of expressed mRNA in the presence of chemical substance/The level of expressed mRNA in the absence of chemical substance (yeast gene YBR072W (stress protein genes)): 32.2 | The level of expressed mRNA in the presence of chemical substance/The level of expressed mRNA in the absence of chemical substance (yeast gene YBR145W): 11.5 | The level of expressed mRNA in the presence of chemical substance/The level of expressed mRNA in the absence of chemical substance (yeast gene YBR145W (detoxification protein gene)): 11.5 | The level of expressed mRNA in the presence of chemical substance/The level of expressed mRNA in the absence of chemical substance (yeast gene YBR145W, cultured for two hours with substance): 11.5 | The level of expressed mRNA in the presence of chemical substance/The level of expressed mRNA in the absence of chemical substance (yeast gene YBR169C (stress protein genes)): 4.9 | The level of expressed mRNA in the presence of chemical substance/The level of expressed mRNA in the absence of chemical substance (yeast gene YDL072C, cultured two hours with substance): 1.5 | The level of expressed mRNA in the presence of chemical substance/The level of expressed mRNA in the absence of chemical substance (yeast gene YDL204W, cultured two hours with substance): 5.6 | The level of expressed mRNA in the presence of chemical substance/The level of expressed mRNA in the absence of chemical substance (yeast gene YDL206W (transport facilitation protein genes)): 5.7 | The level of expressed mRNA in the presence of chemical substance/The level of expressed mRNA in the absence of chemical substance (yeast gene YDL222C, cultured two hours with substance): 1.4 | The level of expressed mRNA in the presence of chemical substance/The level of expressed mRNA in the absence of chemical substance (yeast gene YDR031W, cultured two hours with substance): 3.6 | The level of expressed mRNA in the presence of chemical substance/The level of expressed mRNA in the absence of chemical substance (yeast gene YDR033W (stress protein genes)): 6.7 | The level of expressed mRNA in the presence of chemical substance/The level of expressed mRNA in the absence of chemical substance (yeast gene YDR315C): 9.4 | The level of expressed mRNA in the presence of chemical substance/The level of expressed mRNA in the absence of chemical substance (yeast gene YDR330W, cultured two hours with substance): 2.3 | The level of expressed mRNA in the presence of chemical substance/The level of expressed mRNA in the absence of chemical substance (yeast gene YDR391C, cultured two hours with substance): 2.8 | The level of expressed mRNA in the presence of chemical substance/The level of expressed mRNA in the absence of chemical substance (yeast gene YDR406W (transport facilitation protein gene)): 5.9 | The level of expressed mRNA in the presence of chemical substance/The level of expressed mRNA in the absence of chemical substance (yeast gene YDR411C, cultured two hours with substance): 0.8 | The level of expressed mRNA in the presence of chemical substance/The level of expressed mRNA in the absence of chemical substance (yeast gene YDR511W, cultured two hours with substance): 2.0 | The level of expressed mRNA in the presence of chemical substance/The level of expressed mRNA in the absence of chemical substance (yeast gene YDR545W, cultured two hours with substance): 1.0 | The level of expressed mRNA in the presence of chemical substance/The level of expressed mRNA in the absence of chemical substance (yeast gene YEL001C, cultured two hours with substance): 1.3 | The level of expressed mRNA in the presence of chemical substance/The level of expressed mRNA in the absence of chemical substance (yeast gene YER004W, cultured two hours with substance): 1.2 | The level of expressed mRNA in the presence of chemical substance/The level of expressed mRNA in the absence of chemical substance (yeast gene YER035W, cultured two hours with substance): 0.9 | The level of expressed mRNA in the presence of chemical substance/The level of expressed mRNA in the absence of chemical substance (yeast gene YER079W, cultured two hours with substance): 1.5 | The level of expressed mRNA in the presence of chemical substance/The level of expressed mRNA in the absence of chemical substance (yeast gene YER106W, cultured two hours with substance): 1.1 | The level of expressed mRNA in the presence of chemical substance/The level of expressed mRNA in the absence of chemical substance (yeast gene YER158C, cultured two hours with substance): 0.7 | The level of expressed mRNA in the presence of chemical substance/The level of expressed mRNA in the absence of chemical substance (yeast gene YER163C, cultured two hours with substance): 2.0 | The level of expressed mRNA in the presence of chemical substance/The level of expressed mRNA in the absence of chemical substance (yeast gene YER175C, cultured two hours with substance): 0.8 | The level of expressed mRNA in the presence of chemical substance/The level of expressed mRNA in the absence of chemical substance (yeast gene YFL006W, cultured two hours with substance): 1.2 | The level of expressed mRNA in the presence of chemical substance/The level of expressed mRNA in the absence of chemical substance (yeast gene YFL010C, cultured two hours with substance): 1.9 | The level of expressed mRNA in the presence of chemical substance/The level of expressed mRNA in the absence of chemical substance (yeast gene YFL014W, DNA repair protein genes, cultured two hours with substance): 9.3 | The level of expressed mRNA in the presence of chemical substance/The level of expressed mRNA in the absence of chemical substance (yeast gene YFL024C, cultured two hours with substance): 2.0 | The level of expressed mRNA in the presence of chemical substance/The level of expressed mRNA in the absence of chemical substance (yeast gene YFL032W, cultured two hours with substance): 0.6 | The level of expressed mRNA in the presence of chemical substance/The level of expressed mRNA in the absence of chemical substance (yeast gene YGL037C, cultured two hours with substance): 1.3 | The level of expressed mRNA in the presence of chemical substance/The level of expressed mRNA in the absence of chemical substance (yeast gene YGL047W, cultured two hours with substance): 1.5 | The level of expressed mRNA in the presence of chemical substance/The level of expressed mRNA in the absence of chemical substance (yeast gene YGL053W, cultured two hours with substance): 2.7 | The level of expressed mRNA in the presence of chemical substance/The level of expressed mRNA in the absence of chemical substance (yeast gene YGL117W, cultured two hours with substance): 0.9 | The level of expressed mRNA in the presence of chemical substance/The level of expressed mRNA in the absence of chemical substance (yeast gene YGL121C, cultured two hours with substance): 9.8 | The level of expressed mRNA in the presence of chemical substance/The level of expressed mRNA in the absence of chemical substance (yeast gene YGL199C, cultured two hours with substance): 0.7 | The level of expressed mRNA in the presence of chemical substance/The level of expressed mRNA in the absence of chemical substance (yeast gene YGR043C): 16.3 | The level of expressed mRNA in the presence of chemical substance/The level of expressed mRNA in the absence of chemical substance (yeast gene YGR043C, cultured for two hours with substance): 16.3 | The level of expressed mRNA in the presence of chemical substance/The level of expressed mRNA in the absence of chemical substance (yeast gene YGR101W, cultured two hours with substance): 0.9 | The level of expressed mRNA in the presence of chemical substance/The level of expressed mRNA in the absence of chemical substance (yeast gene YGR108W): 0.1 | The level of expressed mRNA in the presence of chemical substance/The level of expressed mRNA in the absence of chemical substance (yeast gene YGR110W, cultured two hours with substance): 0.9 | The level of expressed mRNA in the presence of chemical substance/The level of expressed mRNA in the absence of chemical substance (yeast gene YGR130C, cultured two hours with substance): 0.9 | The level of expressed mRNA in the presence of chemical substance/The level of expressed mRNA in the absence of chemical substance (yeast gene YGR154C, cultured two hours with substance): 1.4 | The level of expressed mRNA in the presence of chemical substance/The level of expressed mRNA in the absence of chemical substance (yeast gene YGR221C, cultured two hours with substance): 3.0 | The level of expressed mRNA in the presence of chemical substance/The level of expressed mRNA in the absence of chemical substance (yeast gene YHL040C (detoxification protein gene)): 7.3 | The level of expressed mRNA in the presence of chemical substance/The level of expressed mRNA in the absence of chemical substance (yeast gene YHL040C (transport facilitation protein gene)): 7.3 | The level of expressed mRNA in the presence of chemical substance/The level of expressed mRNA in the absence of chemical substance (yeast gene YHR029C, cultured two hours with substance): 2.7 | The level of expressed mRNA in the presence of chemical substance/The level of expressed mRNA in the absence of chemical substance (yeast gene YHR138C, cultured two hours with substance): 3.8 | The level of expressed mRNA in the presence of chemical substance/The level of expressed mRNA in the absence of chemical substance (yeast gene YHR199C, cultured two hours with substance): 1.1 | The level of expressed mRNA in the presence of chemical substance/The level of expressed mRNA in the absence of chemical substance (yeast gene YIL023C, cultured two hours with substance): 0.9 | The level of expressed mRNA in the presence of chemical substance/The level of expressed mRNA in the absence of chemical substance (yeast gene YIL024C, cultured two hours with substance): 1.0 | The level of expressed mRNA in the presence of chemical substance/The level of expressed mRNA in the absence of chemical substance (yeast gene YIL041W, cultured two hours with substance): 1.0 | The level of expressed mRNA in the presence of chemical substance/The level of expressed mRNA in the absence of chemical substance (yeast gene YIL087C, cultured two hours with substance): 4.1 | The level of expressed mRNA in the presence of chemical substance/The level of expressed mRNA in the absence of chemical substance (yeast gene YIL117C, cultured two hours with substance): 1.2 | The level of expressed mRNA in the presence of chemical substance/The level of expressed mRNA in the absence of chemical substance (yeast gene YJL057C, cultured two hours with substance): 1.4 | The level of expressed mRNA in the presence of chemical substance/The level of expressed mRNA in the absence of chemical substance (yeast gene YJL066C, cultured two hours with substance): 1.4 | The level of expressed mRNA in the presence of chemical substance/The level of expressed mRNA in the absence of chemical substance (yeast gene YJL082W, cultured two hours with substance): 0.2 | The level of expressed mRNA in the presence of chemical substance/The level of expressed mRNA in the absence of chemical substance (yeast gene YJL108C, cultured two hours with substance): 0.6 | The level of expressed mRNA in the presence of chemical substance/The level of expressed mRNA in the absence of chemical substance (yeast gene YJL149W, cultured two hours with substance): 0.7 | The level of expressed mRNA in the presence of chemical substance/The level of expressed mRNA in the absence of chemical substance (yeast gene YJL151C, cultured two hours with substance): 2.2 | The level of expressed mRNA in the presence of chemical substance/The level of expressed mRNA in the absence of chemical substance (yeast gene YJL152W, cultured two hours with substance): 1.5 | The level of expressed mRNA in the presence of chemical substance/The level of expressed mRNA in the absence of chemical substance (yeast gene YJL161W, cultured two hours with substance): 8.0 | The level of expressed mRNA in the presence of chemical substance/The level of expressed mRNA in the absence of chemical substance (yeast gene YJL171C, cultured two hours with substance): 2.7 | The level of expressed mRNA in the presence of chemical substance/The level of expressed mRNA in the absence of chemical substance (yeast gene YJL186W, cultured two hours with substance): 0.7 | The level of expressed mRNA in the presence of chemical substance/The level of expressed mRNA in the absence of chemical substance (yeast gene YJR008W, cultured two hours with substance): 2.2

From patent publication US20100041089A1, “IMPROVED METHOD FOR DETECTING CHEMICAL […]” (priority 2006, published 2010)
